# Where a name gives a salt, the structure may show the parent alone.
# Target: T1, human XIAP_BIR3 domain purified protein (Homo sapiens, UniProt P98170)
# T1 construct: purchased R & D
# Test: XIAP binding inhibitory activity, HTRF method with b-Smac ligand
# Conditions: second symbol of the cell; read-out: XIAP binding 50% inhibitory concentration (IC50 value)
# How it was run: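 HTRF competition: human XIAP BIR3 and C-terminally biotinylated Smac peptide AVPIAQK, each diluted to 90 nM before addition, in HEPES pH 7.5 buffer with NaCl, BSA, Triton X-100. Eu-cryptate anti-His/streptavidin-XL665 detection after ≥4 h at room temperature; inhibition % from 665/615 ratio versus no-compound control.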
# T1 sequence (P98170 252-356 limits assumed): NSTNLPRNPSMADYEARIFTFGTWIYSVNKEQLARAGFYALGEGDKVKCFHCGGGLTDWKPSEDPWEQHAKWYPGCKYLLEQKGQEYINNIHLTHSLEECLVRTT
row,SMILES,IC50
1,"CN[C@@H](C)C(=O)N[C@H](C(=O)N1CCN(C(=O)c2ccc3c(c2)cc(C)n3CCOCCOCCO)CC1)C1CCCCC1 [Example 69, (S)—N—((S)-1-Cyclohexyl-2-(4-(1-(2-(2-(2-hydroxyethoxy)ethoxy)ethyl)-2-methyl-1H-indole-5-carbonyl)piperazine-1-yl)-2-oxoethyl)-2-(methylamino)propanamide]",< 300 nM
2,"CN[C@@H](C)C(=O)N[C@H](C(=O)N1CCN(C(=O)c2c(C(=O)NCCOCCOCCNC(=O)C[C@@H]3N=C(c4ccc(Cl)cc4)c4c(sc(C)c4C)-n4c(C)nnc43)c3ccc(OC)cc3n2C)CC1)C1CCCCC1 [Example 72, N-(2-(2-(2-(2-((S)-4-(4-Chlorophenyl)-2,3,9-trimethyl-6H-thieno[3,2-f][1,2,4]triazolo[4,3-a][1,4]diazepin-6-yl)acetamido)ethoxy)ethoxy)ethyl)-2-(4-((S)-2-cyclohexyl-2-((S)-2-(methylamino)propanamido)acetyl)piperazine-1-carbonyl)-6-methoxy-1-methyl-1H-indole-3-carboxamide Hydrochloride]",< 300 nM
3,"CN[C@@H](C)C(=O)N[C@H](C(=O)N1CCN(C(=O)c2c(C(=O)NCCOCCOCCOCCNC(=O)C[C@@H]3N=C(c4ccc(Cl)cc4)c4c(sc(C)c4C)-n4c(C)nnc43)c3ccc(OC)cc3n2C)CC1)C1CCCCC1 [Example 73, N-(1-((S)-4-(4-chlorophenyl)-2,3,9-trimethyl-6H-thieno[3,2-f][1,2,4]triazolo[4,3-a][1,4]diazepin-6-yl)-2-oxo-6,9,12-trioxa-3-azatetradecan-14-yl)-2-(4-((S)-2-cyclohexyl-2-((S)-2-(methylamino)propanamido)acetyl)piperazine-1-carbonyl)-6-methoxy-1-methyl-1H-indole-3-carboxamide]",< 300 nM
4,"CN[C@@H](C)C(=O)N[C@H](C(=O)N1CCN(C(=O)c2c(C(=O)NCCOCCOCCOCCN3CCN(c4cc(Nc5ncc(C(=O)Nc6c(C)cccc6Cl)s5)nc(C)n4)CC3)c3cc(F)c(F)cc3n2C)CC1)C1CCCCC1 [Example 82, N-(2-Chloro-6-methylphenyl)-2-((6-(4-(1-(2-(4-((S)-2-cyclohexyl-2-((S)-2-(methylamino)propanamido)acetyl)piperazine-1-carbonyl)-5,6-difluoro-1-methyl-1H-indol-3-yl)-1-oxo-5,8,11-trioxa-2-azatridecan-13-yl)piperazin-1-yl)-2-methylpyrimidin-4-yl)amino)thiazole-5-carboxamide Trifluoroacetate]",300 to 3000 nM

# The next lines start with the values.
row,IC50,SMILES
1,300 to 3000 nM,"CN[C@@H](C)C(=O)N[C@H](C(=O)N1CCN(C(=O)c2ccc3c(c2)cc(C)n3CCOCCOCCOCCO)CC1)C1CCCCC1 [Example 70, (S)—N—((S)-1-Cyclohexyl-2-(4-(1-(2-(2-(2-(2-hydroxyethoxy)ethoxy)ethoxy)ethyl)-2-methyl-1H-indole-5-carbonyl)piperazin-1-yl)-2-oxoethyl)-2-(methylamino)propanamide]"
2,300 to 3000 nM,"CN[C@@H](C)C(=O)N[C@H](C(=O)N1CCN(C(=O)c2c(C(=O)NCCOCCOCCOc3ccc(NC(=O)C[C@@H]4N=C(c5ccc(Cl)cc5)c5c(sc(C)c5C)-n5c(C)nnc54)cc3)c3cc(F)c(F)cc3n2C)CC1)C1CCCCC1 [Example 78, N-(2-(2-(2-(4-(2-((S)-4-(4-Chlorophenyl)-2,3,9-trimethyl-6H-thieno[3,2-f][1,2,4]triazolo[4,3-a][1,4]diazepin-6-yl)acetamido)phenoxy)ethoxy)ethoxy)ethyl)-2-(4-((S)-2-cyclohexyl-2-((S)-2-(methylamino)propanamido)acetyl)piperazine-1-carbonyl)-5,6-difluoro-1-methyl-1H-indole-3-carboxamide hydrochloride]"
3,300 to 3000 nM,"CN[C@@H](C)C(=O)N[C@H](C(=O)N1CCN(C(=O)c2c(C(=O)NCCOCCOCCOCCOc3ccc(NC(=O)C[C@@H]4N=C(c5ccc(Cl)cc5)c5c(sc(C)c5C)-n5c(C)nnc54)cc3)c3cc(F)c(F)cc3n2C)CC1)C1CCCCC1 [Example 79, N-(2-(2-(2-(2-(4-(2-((S)-4-(4-chlorophenyl)-2,3,9-trimethyl-6H-thieno[3,2-f][1,2,4]triazolo[4,3-a][1,4]diazepin-6-yl)acetamido)phenoxy)ethoxy)ethoxy)ethoxy)ethyl)-2-(4-((S)-2-cyclohexyl-2-((S)-2-(methylamino)propanamido)acetyl)piperazine-1-carbonyl)-5,6-difluoro-1-methyl-1H-indole-3-carboxamide]"

# Same assay, conditions: test compound 3 μM; first symbol of the cell; read-out: XIAP binding inhibition rate when the concentration of the test compound is 3 μM
row,SMILES,inhibition at 3 µM
1,"CN[C@@H](C)C(=O)N[C@H](C(=O)N1CCN(C(=O)c2ccc3c(c2)c(F)c(C)n3CCOCCOCCO)CC1)C1CCCCC1 [Example 71, (S)—N—((S)-1-Cyclohexyl-2-(4-(3-fluoro-1-(2-(2-(2-hydroxyethoxy)ethoxy)ethyl)-2-methyl-1H-indole-5-carbonyl)piperazin-1-yl)-2-oxoethyl)-2-(methylamino)propanamide]",> 75%
2,"CN[C@@H](C)C(=O)N[C@H](C(=O)N1CCN(C(=O)c2c(C(=O)NCCOCCOCCOCCNC(=O)C[C@@H]3N=C(c4ccc(Cl)cc4)c4c(sc(C)c4C)-n4c(C)nnc43)c3cc(F)c(F)cc3n2C)CC1)C1CCCCC1 [Example 74, N-(1-((S)-4-(4-chlorophenyl)-2,3,9-trimethyl-6H-thieno[3,2-f][1,2,4]triazolo[4,3-a][1,4]diazepin-6-yl)-2-oxo-6,9,12-trioxa-3-azatetradecan-14-yl)-2-(4-((S)-2-cyclohexyl-2-((S)-2-(methylamino)propanamido)acetyl)piperazine-1-carbonyl)-5,6-difluoro-1-methyl-1H-indole-3-carboxamide]",25 to 50%
3,"CN[C@@H](C)C(=O)N[C@H](C(=O)N1CCN(C(=O)c2cc3cc(F)ccc3n2CC(=O)NCCOCCOCCNC(=O)C[C@@H]2N=C(c3ccc(Cl)cc3)c3c(sc(C)c3C)-n3c(C)nnc32)CC1)C1CCCCC1 [Example 76, (S)-N-((S)-2-(4-(1-(14-((S)-4-(4-chlorophenyl)-2,3,9-trimethyl-6H-thieno[3,2-f][1,2,4]triazolo[4,3-a][1,4]diazepin-6-yl)-2,13-dioxo-6,9-dioxa-3,12-diazatetradecyl)-5-fluoro-1H-indole-2-carbonyl)piperazin-1-yl)-1-cyclohexyl-2-oxoethyl)-2-(methylamino)propanamide]",> 25%

# Other lines, results leading:
row,inhibition at 3 µM,SMILES
1,> 25%,"CN[C@@H](C)C(=O)N[C@H](C(=O)N1CCN(C(=O)c2cc3cc(F)ccc3n2CC(=O)NCCOCCNC(=O)C[C@@H]2N=C(c3ccc(Cl)cc3)c3c(sc(C)c3C)-n3c(C)nnc32)CC1)C1CCCCC1 [Example 75, (S)-N-((S)-2-(4-(1-(2-((2-(2-(2-((S)-4-(4-chlorophenyl)-2,3,9-trimethyl-6H-thieno[3,2-f][1,2,4]triazolo[4,3-a][1,4]diazepin-6-yl)acetamido)ethoxy)ethyl)amino)-2-oxoethyl)-5-fluoro-1H-indole-2-carbonyl)piperazin-1-yl)-1-cyclohexyl-2-oxoethyl)-2-(methylamino)propanamide]"
2,> 25%,"CN[C@@H](C)C(=O)N[C@H](C(=O)N1CCN(C(=O)c2cc3cc(F)ccc3n2CC(=O)NCCOCCOCCOCCNC(=O)C[C@@H]2N=C(c3ccc(Cl)cc3)c3c(sc(C)c3C)-n3c(C)nnc32)CC1)C1CCCCC1 [Example 77, (S)-N-((S)-2-(4-(1-(17-((S)-4-(4-chlorophenyl)-2,3,9-trimethyl-6H-thieno[3,2-f][1,2,4]triazolo[4,3-a][1,4]diazepin-6-yl)-2,16-dioxo-6,9,12-trioxa-3,15-diazaheptadecyl)-5-fluoro-1H-indole-2-carbonyl)piperazin-1-yl)-1-cyclohexyl-2-oxoethyl)-2-(methylamino)propanamide]"

# From patent US12202829B2, “Heterocyclic compound” (FIMECS, Inc., priority 2018, dated 2025)
